The text below walks through data of US20210198277A1, “AMINE-SUBSTITUTED ARYL OR HETEROARYL COMPOUNDS” (Epizyme, Inc., priority 2016, published 2021).

One test concerns the target T1, human EHMT2 913-1193 (Homo sapiens, UniProt Q96KQ7).
T1 construct: recombinant purified human EHMT2 913-1193, Viva; purchased Viva
T1 sequence (Q96KQ7 913-1193): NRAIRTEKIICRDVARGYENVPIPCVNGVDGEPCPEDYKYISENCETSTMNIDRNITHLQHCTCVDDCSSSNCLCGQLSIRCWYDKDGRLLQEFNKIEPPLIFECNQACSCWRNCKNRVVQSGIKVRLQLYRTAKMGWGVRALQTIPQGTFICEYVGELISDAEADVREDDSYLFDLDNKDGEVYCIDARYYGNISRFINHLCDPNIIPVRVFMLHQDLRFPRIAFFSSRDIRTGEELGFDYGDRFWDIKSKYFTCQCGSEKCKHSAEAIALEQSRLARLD
Kind of test: EHMT2 enzyme assay on histone peptide substrate (EHMT2 PEP). In kind it is biochemical. To be noted: read-out: EHMT2 PEP (IC50 μM). Put shortly: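 Compounds were tested as 3-fold dilutions, 10 points from a 50 μM final top (2% DMSO), after 30-min preincubation with 0.031 nM enzyme in Bicine buffer pH 7.5. Transfer of ^3H-methyl from ^3H-SAM to biotinylated histone peptide ran 60 min at room temperature and was detected by streptavidin Flashplate scintillation.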

The target of a further test is T2, EHMT1 (Homo sapiens, UniProt Q9H9B1).
T2 sequence (Q9H9B1 1-1298): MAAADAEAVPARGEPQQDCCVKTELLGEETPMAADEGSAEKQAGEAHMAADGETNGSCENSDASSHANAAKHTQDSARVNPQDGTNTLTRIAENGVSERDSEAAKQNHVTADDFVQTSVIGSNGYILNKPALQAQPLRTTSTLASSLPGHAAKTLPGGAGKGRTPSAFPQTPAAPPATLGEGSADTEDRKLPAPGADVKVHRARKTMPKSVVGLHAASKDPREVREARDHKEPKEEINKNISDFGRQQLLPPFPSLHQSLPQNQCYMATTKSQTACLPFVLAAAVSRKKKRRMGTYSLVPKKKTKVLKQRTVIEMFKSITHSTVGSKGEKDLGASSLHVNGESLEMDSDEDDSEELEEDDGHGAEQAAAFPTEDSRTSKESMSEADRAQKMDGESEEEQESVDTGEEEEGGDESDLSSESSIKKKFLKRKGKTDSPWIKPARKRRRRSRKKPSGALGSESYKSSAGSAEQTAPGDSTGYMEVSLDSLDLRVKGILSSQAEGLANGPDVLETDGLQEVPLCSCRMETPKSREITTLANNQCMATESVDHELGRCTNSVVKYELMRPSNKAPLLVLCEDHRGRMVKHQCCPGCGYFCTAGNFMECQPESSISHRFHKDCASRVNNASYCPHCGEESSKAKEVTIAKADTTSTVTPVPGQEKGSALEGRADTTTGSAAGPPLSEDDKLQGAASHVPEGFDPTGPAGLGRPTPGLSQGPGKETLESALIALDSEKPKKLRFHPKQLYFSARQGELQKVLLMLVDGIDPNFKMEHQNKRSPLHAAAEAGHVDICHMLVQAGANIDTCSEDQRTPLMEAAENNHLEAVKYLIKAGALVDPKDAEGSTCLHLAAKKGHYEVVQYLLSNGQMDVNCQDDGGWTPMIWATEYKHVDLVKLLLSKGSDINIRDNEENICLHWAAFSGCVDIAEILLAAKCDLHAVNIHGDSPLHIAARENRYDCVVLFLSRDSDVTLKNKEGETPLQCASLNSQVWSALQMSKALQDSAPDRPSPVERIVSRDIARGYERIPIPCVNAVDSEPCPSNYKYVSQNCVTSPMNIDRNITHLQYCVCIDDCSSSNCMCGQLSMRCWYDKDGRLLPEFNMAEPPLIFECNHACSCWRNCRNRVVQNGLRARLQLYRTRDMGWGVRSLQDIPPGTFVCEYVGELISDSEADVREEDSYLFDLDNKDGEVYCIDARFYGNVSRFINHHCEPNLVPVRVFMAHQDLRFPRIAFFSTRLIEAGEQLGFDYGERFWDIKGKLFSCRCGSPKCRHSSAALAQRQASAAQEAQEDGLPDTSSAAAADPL
Kind of test: EHMT1 enzyme assay on peptide substrate (EHMT1 PEP). The settings on record: read-out: EHMT1 PEP (IC50 μM). The test is classed as biochemical.

The structures appear in SMILES notation. Like-named read-outs stand apart in the source and are kept apart here.

As a reminder, the IC50 is the concentration at which inhibition is half-maximal. For `CNc1ccnc(Nc2ccc(OC)c(OCC3CCN(C4CC4)C3)c2)n1` (stereo not drawn) [Compound 411, N^2-(3-((1-cyclopropylpyrrolidin-3-yl)methoxy)-4-methoxyphenyl)-N^4-methylpyrimidine-2,4-diamine], the concentration for half-maximal inhibition (IC50) on human EHMT2 913-1193 (Table III) and at EHMT1 (Table III) was < 0.1 µM throughout.
Regarding `CNc1ccnc(Nc2ccc3c(c2)C(=O)N(CCN2CCCC2)CC3)n1` [Compound 264, 7-((4-(methylamino)pyrimidin-2-yl)amino)-2-(2-(pyrrolidin-1-yl)ethyl)-3,4-dihydroisoquinolin-1(2H)-one], the IC50 on human EHMT2 913-1193 (Table III) and on EHMT1 (Table III) was > 10 µM in each case.
In the case of `CNc1ccnc(Nc2ccc(OC)c(COC3CCN(C)C3)c2)n1` (stereo not drawn) [Compound 407, N^2-(4-methoxy-3-(((1-methylpyrrolidin-3-yl)oxy)methyl)phenyl)-N^4-methylpyrimidine-2,4-diamine], the IC50 at human EHMT2 913-1193 (Table III) and on EHMT1 (Table III) was 0.1 to 1 µM throughout.
As for `CNc1ccnc(Nc2ccc3cnn(CCN(C)C)c3c2)n1` [Compound 386], the IC50 at human EHMT2 913-1193 (Table III) and at EHMT1 (Table III) was > 10 µM each time.
For `COc1ccc(Nc2ccnc3[nH]ccc23)cc1OCCCN1CCCC1` [Compound 374], the IC50 at human EHMT2 913-1193 (Table III) and on EHMT1 (Table III) was 1 to 10 µM each time.
As to `CNc1ccnc(Nc2ccc(OC)c(OCCCN3CC(O)C3)c2)n1` [Compound 414, 1-(3-(2-methoxy-5-((4-(methylamino)pyrimidin-2-yl)amino)phenoxy)propyl)azetidin-3-ol], the IC50 at human EHMT2 913-1193 (Table III) and at EHMT1 (Table III) was < 0.1 µM each time.
Regarding `CNc1nccc(Nc2ccc(OC)c(OCCCN3CCCC3)c2)n1` [Compound 355], the IC50 on human EHMT2 913-1193 (Table III) and at EHMT1 (Table III) was < 0.1 µM in each case.
For the compound `CNc1ccnc(Nc2ccc(OC)c(OCC3CCCN(C)C3)c2)n1` (stereo not drawn) [Compound 412, N^2-(4-methoxy-3-((1-methylpiperidin-3-yl)methoxy)phenyl)-N^4-methylpyrimidine-2,4-diamine], the IC50 on human EHMT2 913-1193 (Table III) and at EHMT1 (Table III) was 0.1 to 1 µM in each case.
For the compound `COc1ccc(Nc2nccc(NCC3CCNCC3)n2)cc1OCCCN1CCCC1` [Compound 90], the IC50 at human EHMT2 913-1193 (Table II) and at EHMT1 (Table II) was < 0.1 µM each time.
As to `CNc1ccnc(Nc2ccc(OC)c(OCC3CCN(C)C3)c2)n1` (single isomer, unassigned) [Compound 415], the IC50 on human EHMT2 913-1193 (Table III) is 1 to 10 µM; at EHMT1 (Table III), 0.1 to 1 µM.
On the same counts, the results for `CNc1nc(Nc2ccc(OC)c(OCCCN3CCCC3)c2)ncc1C#N` [Compound 357] are > 10 µM and > 10 µM.
Regarding `CNc1ccnc(Nc2ccc(OC)c(OC[C@@H](O)CN3CCCC3)c2)n1` (single isomer, unassigned) [Compound 377], the half-inhibitory concentration (IC50) is 1 to 10 µM on human EHMT2 913-1193 (Table III) and > 10 µM at EHMT1 (Table III).
The like results for `CNc1ccnc(Nc2cccc(COCCN3CCCC3)c2)n1` [Compound 383] were, in that order, 1 to 10 µM and 1 to 10 µM.
On the same counts, the results for `CNc1cc(C#N)nc(Nc2ccc(OC)c(OCCCN3CCCC3)c2)n1` [Compound 384] are > 10 µM and > 10 µM.
Turning to `COc1ccc(Nc2nccc(NCC(=O)N3CCOCC3)n2)cc1OCCCN1CCCC1` [Compound 51], the IC50 on human EHMT2 913-1193 (Table II) and on EHMT1 (Table II) was 0.1 to 1 µM throughout.
As to `CNc1ccnc(Nc2ccc(OC)c(OC[C@H](O)CN3CCCC3)c2)n1` (single isomer, unassigned) [Compound 376], the IC50 on human EHMT2 913-1193 (Table III) and on EHMT1 (Table III) was 1 to 10 µM in each case.
Take `COc1ccc(Nc2ccc3cn(C)nc3n2)cc1OCCCN1CCCC1` [Compound 402]: the IC50 on human EHMT2 913-1193 (Table III) and on EHMT1 (Table III) was > 10 µM throughout.
On to `COc1ccc(Nc2nccc(NCC3CCN(CC(F)F)CC3)n2)cc1OCCCN1CCCC1` [Compound 2, N^4-((1-(2,2-difluoroethyl)piperidin-4-yl)methyl)-N^2-(4-methoxy-3-(3-(pyrrolidin-1-yl)propoxy)phenyl)pyrimidine-2,4-diamine], for which the IC50 at human EHMT2 913-1193 (Table II) and on EHMT1 (Table II) was < 0.1 µM throughout.
As to `CNc1ccnc(Nc2ccc3cnn(CCCN(C)C)c3c2)n1` [Compound 388, N^2-(1-(3-(dimethylamino)propyl)-1H-indazol-6-yl)-N^4-methylpyrimidine-2,4-diamine], the IC50 at human EHMT2 913-1193 (Table III) and on EHMT1 (Table III) was > 10 µM each time.
For the compound `CNc1ncc(C(F)(F)F)c(Nc2ccc(OC)c(OCCCN3CCCC3)c2)n1` [Compound 359], the IC50 at human EHMT2 913-1193 (Table III) and at EHMT1 (Table III) was > 10 µM each time.
Regarding `CNc1ccnc(Nc2ccc(OC)c(OCC3CCN(CCOC)C3)c2)n1` (stereo not drawn) [Compound 410, N^2-(4-methoxy-3-((1-(2-methoxyethyl)pyrrolidin-3-yl)methoxy)phenyl)-N^4-methylpyrimidine-2,4-diamine], the IC50 at human EHMT2 913-1193 (Table III) and at EHMT1 (Table III) was 1 to 10 µM throughout.
On to `COc1ccc(Nc2ncc(C)c(NCC3CCN(C(C)=O)CC3)n2)cc1OCCCN1CCCC1` [Compound 55], for which the IC50 at human EHMT2 913-1193 (Table II) and on EHMT1 (Table II) was 0.1 to 1 µM throughout.
`CCc1cc(NC)nc(Nc2ccc(OC)c(OCCCN3CC[C@@H](F)C3)c2)n1` [Compound 385]: the concentration for half-maximal inhibition (IC50) on human EHMT2 913-1193 (Table III) and on EHMT1 (Table III) was 0.1 to 1 µM throughout.
Take `c1cc(Nc2nccc(NCC3CCNCC3)n2)cc(OCCCN2CCCC2)c1` [Compound 88]: the IC50 on human EHMT2 913-1193 (Table II) and on EHMT1 (Table II) was 0.1 to 1 µM each time.
For the compound `CNc1ccnc(Nc2ccc3c(C)nn(CCCN(C)C)c3c2)n1` [Compound 389], the IC50 on human EHMT2 913-1193 (Table III) and on EHMT1 (Table III) was > 10 µM each time.
For `CC(C)Nc1ccnc(Nc2cccc(OCCCN3CC[C@@H](F)C3)c2)n1` [Compound 375], the IC50 on human EHMT2 913-1193 (Table III) and on EHMT1 (Table III) was > 10 µM throughout.
For the compound `CNc1cc(OC)nc(Nc2ccc(OC)c(OCCCN3CCCC3)c2)n1` [Compound 261, 6-methoxy-N^2-(4-methoxy-3-(3-(pyrrolidin-1-yl)propoxy)phenyl)-N^4-methylpyrimidine-2,4-diamine], the IC50 on human EHMT2 913-1193 (Table III) and on EHMT1 (Table III) was > 10 µM throughout.
For `CCN1CCC(COc2cc(Nc3nccc(NC)n3)ccc2OC)C1` (stereo not drawn) [Compound 408, N^2-(3-((1-ethylpyrrolidin-3-yl)methoxy)-4-methoxyphenyl)-N^4-methylpyrimidine-2,4-diamine], the IC50 on human EHMT2 913-1193 (Table III) and on EHMT1 (Table III) was 0.1 to 1 µM in each case.
Consider `CNc1ccnc(Nc2ccc(OC)c(OCCCN3CCCC3)c2)n1` [Compound 1, N^2-(4-methoxy-3-(3-(pyrrolidin-1-yl)propoxy)phenyl)-N^4-methylpyrimidine-2,4-diamine], for which the concentration for half-maximal inhibition (IC50) at human EHMT2 913-1193 (Table II) and at EHMT1 (Table II) was < 0.1 µM throughout.
`CNc1ccnc(Nc2cccc(N3CCC(N(C)C)C3)c2)n1` (stereo not drawn) [Compound 397]: the IC50 at human EHMT2 913-1193 (Table III) and at EHMT1 (Table III) was > 10 µM each time.
With `COc1ccc(Nc2nccc3[nH]ncc23)cc1OCCCN1CCCC1` [Compound 373], the IC50 at human EHMT2 913-1193 (Table III) and at EHMT1 (Table III) was > 10 µM in each case.
Regarding `COc1ccc(Nc2nccc(N(C)Cc3ccncc3)n2)cc1OCCCN1CCCC1` [Compound 56], the IC50 on human EHMT2 913-1193 (Table II) and at EHMT1 (Table II) was 1 to 10 µM each time.
`COc1ccc(Nc2nccc(NCC3CCN(CC(F)(F)F)CC3)n2)cc1OCCCN1CCCC1` [Compound 4, N^2-(4-methoxy-3-(3-(pyrrolidin-1-yl)propoxy)phenyl)-N^4-((1-(2,2,2-trifluoroethyl)piperidin-4-yl)methyl)pyrimidine-2,4-diamine]: the values for the IC50 at human EHMT2 913-1193 (Table II) and on EHMT1 (Table II) were < 0.1 µM and 0.1 to 1 µM, respectively.
